# Molecular target: T1, N-type Ca2+ channels in IMR-32 cells (Homo sapiens, UniProt Q00975)
# T1 construct: host or cells: IMR-32 cells, differentiated with dibutyryl cAMP and bromodeoxyuridine
# Experiment: Inhibition of N-type calcium flux in IMR-32 cells (Indo-1 fluorescence, nitrendipine present)
# Type: cell-based
# Experimental: Measurement of N-type Ca^2+ Channel Blocking Potencies of Compounds in IMR-32 Cells Using the Fluorescent Ca^2+ Indicator Indo-1
# IMR-32 cells are a human tumoral cell line of neural origin. […] Calcium flux into these cells may be induced by stimulation with elevated potassium concentrations. The L-channel component of calcium flux may be blocked by adding 5 μM nitrendipine. The remaining component of calcium entry into the IMR-32 cells is due to calcium flux through N-type calcium channels. Intracellular calcium concentrations are measured using the fluorescent calcium indicator Indo 1. The effect of drug concentration on calcium uptake is studied.
# The IMR-32 cell line was obtained from the American Type Culture Collection (Rockville, Md.). Cells were grown in Eagle's Minimum Essential Medium with Eagle's salts supplemented with 10% fetal bovine serum, 2 mM L-Gln and antibiotic/antimycotic mixture (Gibco). […] After 7 to 13 days of differentiation, cells were detached using 0.5 mM EDTA and loaded with 5 μM Indo-1 acetoxymethyl ester (Molecular Probes, Eugene, OR) at […] for 45 minutes. Loaded cells were washed twice, resuspended (˜10^7 cells/mL) in assay buffer (10 mM HEPES/Tris pH 7.4 in Hank's Balanced Salt Solution without bicarbonate or phenol red containing 0.5% bovine serum albumin) and kept on ice until use. Fluorescence measurements were carried out in a Photon Technology International (PTI, South Brunswick, N.J.) Model RF-F3004 spectrofluorometer with dual emission monochromators using excitation at 350 nm and emission at 400 and 490 nm. The instrument was equipped with a thermostated cuvette holder with stirring capabilities as well as with a computer-controlled pump which allowed for reagent addition during measurement. Instrument control and data collection was done by PTI's OSCAR software running on an IBM compatible computer. […] Samples were incubated for 10 minutes at 30° C. and then aliquoted into three 10×10 mm disposable acrylic cuvettes. Emission signals at 400 and 490 nm were acquired from each cuvette at 30° C. for 50 seconds. At 20 seconds after the start of reading, cells were depolarized by the addition of 160 μL of stimulation solution (1M KCl, 68 mM CaCl2) to the cuvette via the computer-controlled pump. Ratio of dual emission signals (400 nm/490 nm), which is proportional to intracellular Ca^2+ concentration, was plotted against time, and the difference between maximal response after stimulation and basal value (before stimulation) was determined. Values obtained in this way were plotted as a function of drug concentration. IC50 values of test compounds were calculated by fitting a four-parameter logistic function to the data using the least squares method.
# T1 sequence (Q00975 whole entry): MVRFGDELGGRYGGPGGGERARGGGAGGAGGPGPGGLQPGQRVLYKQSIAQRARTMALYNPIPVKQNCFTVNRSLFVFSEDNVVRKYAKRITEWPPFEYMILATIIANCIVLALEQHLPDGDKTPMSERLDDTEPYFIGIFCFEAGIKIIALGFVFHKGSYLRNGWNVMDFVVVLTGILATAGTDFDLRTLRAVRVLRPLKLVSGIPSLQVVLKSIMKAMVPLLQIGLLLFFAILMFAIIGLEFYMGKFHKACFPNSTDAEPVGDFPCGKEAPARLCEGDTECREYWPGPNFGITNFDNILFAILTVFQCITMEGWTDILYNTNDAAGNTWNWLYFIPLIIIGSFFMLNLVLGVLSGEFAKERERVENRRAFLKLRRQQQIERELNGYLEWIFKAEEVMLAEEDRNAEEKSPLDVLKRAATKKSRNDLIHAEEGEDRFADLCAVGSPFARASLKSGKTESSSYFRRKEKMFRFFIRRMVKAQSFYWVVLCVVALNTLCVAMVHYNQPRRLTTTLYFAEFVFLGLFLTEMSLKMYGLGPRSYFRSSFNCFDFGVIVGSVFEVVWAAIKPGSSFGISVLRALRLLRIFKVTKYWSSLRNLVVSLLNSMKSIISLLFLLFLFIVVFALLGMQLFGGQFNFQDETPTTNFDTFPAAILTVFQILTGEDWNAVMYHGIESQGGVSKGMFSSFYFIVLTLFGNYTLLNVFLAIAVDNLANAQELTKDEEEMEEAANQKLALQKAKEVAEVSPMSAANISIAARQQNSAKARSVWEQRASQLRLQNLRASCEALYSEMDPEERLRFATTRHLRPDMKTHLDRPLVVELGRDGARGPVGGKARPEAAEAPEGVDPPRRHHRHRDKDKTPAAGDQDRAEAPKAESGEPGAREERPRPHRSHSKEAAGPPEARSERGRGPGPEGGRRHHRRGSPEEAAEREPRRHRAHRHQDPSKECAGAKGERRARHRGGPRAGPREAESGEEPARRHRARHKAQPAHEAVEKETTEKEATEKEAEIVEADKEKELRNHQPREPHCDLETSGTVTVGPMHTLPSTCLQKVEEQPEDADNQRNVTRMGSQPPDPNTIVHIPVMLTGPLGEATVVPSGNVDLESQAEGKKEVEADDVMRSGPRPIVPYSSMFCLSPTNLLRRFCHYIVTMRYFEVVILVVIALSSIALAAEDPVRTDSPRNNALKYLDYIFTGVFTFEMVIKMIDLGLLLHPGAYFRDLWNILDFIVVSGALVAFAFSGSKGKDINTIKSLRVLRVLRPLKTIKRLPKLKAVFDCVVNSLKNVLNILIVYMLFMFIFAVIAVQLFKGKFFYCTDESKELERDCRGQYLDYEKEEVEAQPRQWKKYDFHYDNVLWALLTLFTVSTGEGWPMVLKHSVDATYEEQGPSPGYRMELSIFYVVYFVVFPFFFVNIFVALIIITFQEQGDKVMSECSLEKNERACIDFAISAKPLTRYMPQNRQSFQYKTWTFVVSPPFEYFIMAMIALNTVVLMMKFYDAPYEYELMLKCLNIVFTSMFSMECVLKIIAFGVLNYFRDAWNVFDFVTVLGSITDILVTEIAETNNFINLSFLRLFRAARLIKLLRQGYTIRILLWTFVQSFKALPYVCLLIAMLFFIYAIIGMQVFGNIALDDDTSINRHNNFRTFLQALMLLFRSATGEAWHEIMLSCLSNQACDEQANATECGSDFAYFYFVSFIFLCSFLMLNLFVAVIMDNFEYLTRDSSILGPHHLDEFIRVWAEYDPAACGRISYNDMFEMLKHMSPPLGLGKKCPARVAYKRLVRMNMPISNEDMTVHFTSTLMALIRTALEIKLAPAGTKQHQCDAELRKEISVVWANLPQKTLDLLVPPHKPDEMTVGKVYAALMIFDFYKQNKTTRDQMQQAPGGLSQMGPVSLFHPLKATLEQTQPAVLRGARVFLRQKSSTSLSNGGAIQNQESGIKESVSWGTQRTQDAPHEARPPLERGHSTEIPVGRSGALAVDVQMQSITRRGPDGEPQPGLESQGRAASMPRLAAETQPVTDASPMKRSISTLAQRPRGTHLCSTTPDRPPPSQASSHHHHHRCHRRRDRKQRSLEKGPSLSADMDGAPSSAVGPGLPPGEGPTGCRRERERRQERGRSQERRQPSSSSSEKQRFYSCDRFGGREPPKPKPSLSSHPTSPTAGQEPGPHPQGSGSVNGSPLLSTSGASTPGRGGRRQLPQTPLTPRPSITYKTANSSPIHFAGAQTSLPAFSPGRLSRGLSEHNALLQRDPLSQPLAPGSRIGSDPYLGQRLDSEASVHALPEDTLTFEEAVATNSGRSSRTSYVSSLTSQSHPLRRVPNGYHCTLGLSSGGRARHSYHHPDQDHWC
# T1 sequence (P54289 25-956 partner limits assumed): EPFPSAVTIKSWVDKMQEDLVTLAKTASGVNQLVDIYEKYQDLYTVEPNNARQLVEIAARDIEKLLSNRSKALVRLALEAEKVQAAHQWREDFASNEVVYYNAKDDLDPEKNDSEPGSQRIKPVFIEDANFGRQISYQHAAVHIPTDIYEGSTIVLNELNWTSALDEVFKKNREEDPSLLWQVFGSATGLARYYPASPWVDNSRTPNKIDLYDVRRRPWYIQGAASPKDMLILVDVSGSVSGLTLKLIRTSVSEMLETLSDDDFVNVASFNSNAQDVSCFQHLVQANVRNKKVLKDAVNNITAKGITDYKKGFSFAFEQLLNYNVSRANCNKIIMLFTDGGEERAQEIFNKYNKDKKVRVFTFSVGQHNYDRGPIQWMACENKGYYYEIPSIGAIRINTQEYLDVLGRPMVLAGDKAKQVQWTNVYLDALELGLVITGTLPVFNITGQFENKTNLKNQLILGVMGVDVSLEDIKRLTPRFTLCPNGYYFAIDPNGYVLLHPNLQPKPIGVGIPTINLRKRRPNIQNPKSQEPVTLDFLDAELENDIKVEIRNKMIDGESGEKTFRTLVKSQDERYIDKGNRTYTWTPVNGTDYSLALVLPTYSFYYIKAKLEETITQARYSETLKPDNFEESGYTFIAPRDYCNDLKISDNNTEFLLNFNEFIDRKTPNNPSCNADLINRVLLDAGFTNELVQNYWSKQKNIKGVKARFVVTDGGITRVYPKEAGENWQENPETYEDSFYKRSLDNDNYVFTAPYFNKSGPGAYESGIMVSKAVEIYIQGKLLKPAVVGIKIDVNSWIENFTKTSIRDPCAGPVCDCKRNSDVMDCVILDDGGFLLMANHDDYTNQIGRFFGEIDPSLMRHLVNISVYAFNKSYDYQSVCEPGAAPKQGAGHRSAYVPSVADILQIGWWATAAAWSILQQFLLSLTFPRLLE
# T1 sequence (P54289 957-1103 partner limits assumed): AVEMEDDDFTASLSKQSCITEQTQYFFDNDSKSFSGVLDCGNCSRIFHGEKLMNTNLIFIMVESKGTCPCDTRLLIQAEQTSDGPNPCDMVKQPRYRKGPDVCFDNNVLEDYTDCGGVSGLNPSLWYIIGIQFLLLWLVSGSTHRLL
# T1 sequence (P54284 whole entry partner): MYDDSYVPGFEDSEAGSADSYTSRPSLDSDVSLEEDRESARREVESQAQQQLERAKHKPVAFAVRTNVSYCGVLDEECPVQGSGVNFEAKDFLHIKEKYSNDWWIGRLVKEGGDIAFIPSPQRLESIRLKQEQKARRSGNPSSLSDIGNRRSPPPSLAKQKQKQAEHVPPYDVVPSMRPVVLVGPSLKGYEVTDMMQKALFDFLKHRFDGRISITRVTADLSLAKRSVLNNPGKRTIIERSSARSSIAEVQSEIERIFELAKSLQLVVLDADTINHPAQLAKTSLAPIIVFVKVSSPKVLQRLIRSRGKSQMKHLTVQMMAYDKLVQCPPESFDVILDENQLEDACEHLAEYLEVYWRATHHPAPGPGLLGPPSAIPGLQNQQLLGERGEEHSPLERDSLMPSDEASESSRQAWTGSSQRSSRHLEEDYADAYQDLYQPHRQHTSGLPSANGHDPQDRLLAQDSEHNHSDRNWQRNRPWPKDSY
Inhibition of Calcium Flux in IMR-32 Cells % Inhibition at 1 μM,Inhibition of Calcium Flux in IMR-32 Cells % Inhibition at 10 μM,Compound
56%,76%,"CC(C)C[C@H](NC(=O)N1CCCCCC1)C(=O)N[C@@H](Cc1ccc(OCc2c(Cl)cccc2Cl)cc1)C(=O)NC(C)(C)C (relative stereo) [Example 52, [S-(R*,R*)]-Azepane-1-carboxylic acid (1-{1-tert-butylcarbamoyl-2-[4-(2,6-dichloro-benzyloxy)-phenyl]-ethylcarbamoyl}-3-methyl-butyl)-amide]"
44%,63%,"CC(C)C[C@H](NC(=O)Nc1ccccc1)C(=O)N[C@@H](Cc1ccc(OCc2ccccc2)cc1)C(=O)OC(C)(C)C (relative stereo) [Example 54, [S-(R*,R*)]-3-(4-Benzyloxy-phenyl)-2-[4-methyl-2-(3-phenyl-ureido)-pentanoylamino]propionic acid tert-butyl ester]"
14%,46%,"CC(C)C[C@H](NC(=O)Nc1ccc([N+](=O)[O-])cc1)C(=O)N[C@@H](Cc1ccc(OCc2ccccc2)cc1)C(=O)OC(C)(C)C (relative stereo) [Example 55, [S-(R*,R*)]-3-(4-Benzyloxy-phenyl)-2-{4-methyl-2-[3-(4-nitro-phenyl)-ureido]pentanoylamino}-propionic acid tert-butyl ester]"
24%,56%,"CC(C)C[C@H](NC(=O)NC1CCCCC1)C(=O)N[C@@H](Cc1ccc(OCc2ccccc2)cc1)C(=O)OC(C)(C)C (relative stereo) [Example 56, [S-(R*,R*)]-3-(4-Benzyloxy-phenyl)-2-[2-(3-cyclohexyl-ureido)-4-methyl-pentanoylamino]propionic acid tert-butyl ester]"
34%,74%,"COc1cccc(NC(=O)N[C@@H](CC(C)C)C(=O)N[C@@H](Cc2ccc(OCc3ccccc3)cc2)C(=O)OC(C)(C)C)c1 (relative stereo) [Example 57, [S-(R*,R*)]-3-(4-Benzyloxy-phenyl)-2-{2-[3-(3-methoxy-phenyl)-ureido]-4-methyl-pentanoylamino}-propionic acid tert-butyl ester]"
52%,35%,"Cc1ccc(NC(=O)N[C@@H](CC(C)C)C(=O)N[C@@H](Cc2ccc(OCc3ccccc3)cc2)C(=O)OC(C)(C)C)cc1 (relative stereo) [Example 58, [S-(R*,R*)]-3-(4-Benzyloxy-phenyl)-2-[4-methyl-2-(3-p-tolyl-ureido)-pentanoylamino]propionic acid tert-butyl ester]"
41%,61%,"CCCCNC(=O)N[C@@H](CC(C)C)C(=O)N[C@@H](Cc1ccc(OCc2ccccc2)cc1)C(=O)OC(C)(C)C (relative stereo) [Example 59, [S-(R*,R*)]-3-(4-Benzyloxy-phenyl)-2-[2-(3-butyl-ureido)-4-methyl-pentanoylamino]-propionic acid tert-butyl ester]"
24%,–,"CC(C)C[C@H](NC(=O)NCc1ccccc1)C(=O)N[C@@H](Cc1ccc(OCc2ccccc2)cc1)C(=O)OC(C)(C)C (relative stereo) [Example 60, [S-(R*,R*)]-3-(4-Benzyloxy-phenyl)-2-[2-(3-benzyl-ureido)-4-methyl-pentanoylamino]-propionic acid tert-butyl ester]"
34%,–,"Cc1ccccc1NC(=O)N[C@@H](CC(C)C)C(=O)N[C@@H](Cc1ccc(OCc2ccccc2)cc1)C(=O)OC(C)(C)C (relative stereo) [Example 61, [S-(R*,R*)]-3-(4-Benzyloxy-phenyl)-2-[4-methyl-2-(3-o-tolyl-ureido)-pentanoylamino]-propionic acid tert-butyl ester]"
29%,–,"Cc1cccc(C)c1NC(=O)N[C@@H](CC(C)C)C(=O)N[C@@H](Cc1ccc(OCc2ccccc2)cc1)C(=O)OC(C)(C)C (relative stereo) [Example 62, [S-(R*,R*)]-3-(4-Benzyloxy-phenyl)-2-{2-[3-(2,6-dimethyl-phenyl)-ureido]-4-methyl-pentanoylamino}-propionic acid tert-butyl ester]"
31%,–,"CSc1ccc(NC(=O)N[C@@H](CC(C)C)C(=O)N[C@@H](Cc2ccc(OCc3ccccc3)cc2)C(=O)OC(C)(C)C)cc1 (relative stereo) [Example 64, [S-(R*,R*)]-3-(4-Benzyloxy-phenyl)-2-{4-methyl-2-[3-(4-methylsulfanyl-phenyl)-ureido]-pentanoylamino}-propionic acid tert-butyl ester]"
28%,–,"CC(C)C[C@H](NC(=O)Nc1ccc(Oc2ccccc2)cc1)C(=O)N[C@@H](Cc1ccc(OCc2ccccc2)cc1)C(=O)OC(C)(C)C (relative stereo) [Example 65, [S-(R*,R*)]-3-(4-Benzyloxy-phenyl)-2-{4-methyl-2-[3-(4-phenoxy-phenyl)-ureido]pentanoylamino}-propionic acid tert-butyl ester]"
31%,–,"COc1ccc(NC(=O)N[C@@H](CC(C)C)C(=O)N[C@@H](Cc2ccc(OCc3ccccc3)cc2)C(=O)OC(C)(C)C)cc1 (relative stereo) [Example 68, [S-(R*,R*)]-3-(4-Benzyloxy-phenyl)-2-{2-[3-(4-methoxy-phenyl)-ureido]-4-methyl-pentanoylamino}-propionic acid tert-butyl ester]"
31%,–,"CC(C)C[C@H](NC(=O)Nc1ccc(F)cc1F)C(=O)N[C@@H](Cc1ccc(OCc2ccccc2)cc1)C(=O)OC(C)(C)C (relative stereo) [Example 69, [S-(R*,R*)]-3-(4-Benzyloxy-phenyl)-2-{2-[3-(2,4-difluoro-phenyl)-ureido]-4-methyl-pentanoylamino}-propionic acid tert-butyl ester]"
25%,–,"CC(C)C[C@H](NC(=O)Nc1ccc(C(F)(F)F)cc1)C(=O)N[C@@H](Cc1ccc(OCc2ccccc2)cc1)C(=O)OC(C)(C)C (relative stereo) [Example 70, [S-(R*,R*)]-3-(4-Benzyloxy-phenyl)-2-{4-methyl-2-[3-(4-trifluoromethyl-phenyl)-ureido]-pentanoylamino}-propionic acid tert-butyl ester]"
55%,–,"COc1ccccc1NC(=O)N[C@@H](CC(C)C)C(=O)N[C@@H](Cc1ccc(OCc2ccccc2)cc1)C(=O)OC(C)(C)C (relative stereo) [Example 71, [S-(R*,R*)]-3-(4-Benzyloxy-phenyl)-2-{2-[3-(2-methoxy-phenyl)-ureido]-4-methyl-pentanoylamino}-propionic acid tert-butyl ester]"
31%,–,"Cc1cc(C)cc(NC(=O)N[C@@H](CC(C)C)C(=O)N[C@@H](Cc2ccc(OCc3ccccc3)cc2)C(=O)OC(C)(C)C)c1 (relative stereo) [Example 72, [S-(R*,R*)]-3-(4-Benzyloxy-phenyl)-2-{2-[3-(3,5-dimethyl-phenyl)-ureido]-4-methyl-pentanoylamino}-propionic acid tert-butyl ester]"
60%,–,"CC(C)C[C@H](NC(=O)Nc1ccccc1Cl)C(=O)N[C@@H](Cc1ccc(OCc2ccccc2)cc1)C(=O)OC(C)(C)C (relative stereo) [Example 73, [S-(R*,R*)]-3-(4-Benzyloxy-phenyl)-2-{2-[3-(2-chloro-phenyl)-ureido]-4-methylpentanoylamino}-propionic acid tert-butyl ester]"
45%,–,"CC(C)C[C@H](NC(=O)Nc1cccc(Cl)c1)C(=O)N[C@@H](Cc1ccc(OCc2ccccc2)cc1)C(=O)OC(C)(C)C (relative stereo) [Example 74, [S-(R*,R*)]-3-(4-Benzyloxy-phenyl)-2-{2-[3-(3-chloro-phenyl)-ureido]-4-methyl-pentanoylamino}-propionic acid tert-butyl ester]"

# From patent US6423689B1, “Peptidyl calcium channel blockers” (Warner-Lambert Company, priority 1997, dated 2002)
